In US12577273B2, “Small molecule modulators of gut bacterial bile acid metabolism” (priority 2019, dated 2026):
Entries after “also recorded” stand apart in the source; their conditions may differ.

Target: T1, B. longum BSH (Bifidobacterium longum, UniProt Q9KK62)
T1 sequence (Q9KK62 1-317): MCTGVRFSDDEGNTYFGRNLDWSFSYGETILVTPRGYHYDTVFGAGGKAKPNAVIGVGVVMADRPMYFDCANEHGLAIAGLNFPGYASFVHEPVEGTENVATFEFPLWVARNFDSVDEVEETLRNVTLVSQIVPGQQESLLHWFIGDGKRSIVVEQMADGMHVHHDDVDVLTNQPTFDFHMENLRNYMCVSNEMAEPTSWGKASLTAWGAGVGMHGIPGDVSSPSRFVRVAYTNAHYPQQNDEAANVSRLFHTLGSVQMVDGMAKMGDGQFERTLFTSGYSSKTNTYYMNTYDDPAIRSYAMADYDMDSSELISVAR
Assay: Inhibitor screen using rBSH, B. longum BSH (UPLC-MS % deconjugation)
Assay type: biochemical, Bifidobacterium longum SBT2928
Design: His6 (C); made in house; host or cells: Escherichia coli (as for the B. theta enzyme)
Conditions: 100 μM inhibitor; 2 h, 5 h and 21 h timepoints
Experimental: B. longum rBSH. Recombinant BSH from B. longum SBT2928 was expressed and purified as above, except 0.25 mM IPTG was used for protein expression and 1 mM TCEP for protein purification.
Inhibitor Screen Using rBSHs.

`C[C@H](CCC(=O)CF)[C@H]1CC[C@H]2[C@@H]3[C@H](O)C[C@@H]4C[C@H](O)CC[C@]4(C)[C@H]3CC[C@]12C` [Compound 7] was tested, and the “inhibition of B. longum BSH (in words)” value was “most potent inhibitor; also recorded: most active inhibitor”.
